Here are results for one compound from ChEMBL document CHEMBL5233280, “Berberine improves liver injury induced glucose and lipid metabolic disorders via alleviating ER stress of hepatocytes and modulating gut microbiota in mice” (Bioorg Med Chem, 2021).

Holding throughout (assay type): functional, organism-based
Experiment [1] has as its system Mus musculus. The experiment is described as follows: Protection against tunicamycin-induced liver injury-mediated hepatic metabolic disorders in C57BL/6 mouse assessed as increase in CD36 gene expression at 150 mg/kg, ig administered for 3 days and on day 3 administered with tunicamycin after 2 hrs and measured after 24 hrs by RT-qPCR analysis. As to conditions: time 4.0 day.

The test system of experiment [2] is Mus musculus. The experiment is described as follows: Protection against tunicamycin-induced liver injury-mediated hepatic metabolic disorders in C57BL/6 mouse assessed as reduction in FGF21 gene expression in liver at 75 to 300 mg/kg, ig administered for 3 days and on day 3 administered with tunicamycin after 2 hrs and measured after 24 hrs by RT-qPCR analysis. The note with it: dose 75-300 mg/kg, time 4.0 day. For orientation: Real-time PCR tracks product formation cycle by cycle.

Experiment [3] has as its system Mus musculus. In words: Protection against tunicamycin-induced liver injury-mediated hepatic metabolic disorders in C57BL/6 mouse assessed as reduction in FGF21 level in serum at 75 to 300 mg/kg, ig administered for 3 days and on day 3 administered with tunicamycin after 2 hrs and measured after 24 hrs by ELISA. As to conditions: dose 75-300 mg/kg, time 4.0 day. On the technique in general: An ELISA detects its analyte on a solid surface through an enzyme-linked reagent.

Experiment [4] concerns Mus musculus. In words: Protection against tunicamycin-induced liver injury-mediated hepatic metabolic disorders in C57BL/6 mouse assessed as reduction in TRB3 gene expression in liver at 150 mg/kg, ig administered for 3 days and on day 3 administered with tunicamycin after 2 hrs and measured after 24 hrs by RT-qPCR analysis. The note with it: time 4.0 day.
Experiment [5] relates to Mus musculus. The experiment is described as follows: Protection against tunicamycin-induced liver injury-mediated hepatic metabolic disorders in C57BL/6 mouse assessed as increase in phosphorylated Akt level in liver at 150 mg/kg, ig administered for 3 days and on day 3 administered with tunicamycin after 2 hrs and measured after 24 hrs in presence of insulin by western blot analysis. The note with it: time 4.0 day. (In general: A western blot detects proteins with antibodies after separation by electrophoresis.)

Experiment [6] relates to Mus musculus. In words: Effect on Akt protein expression in liver of tunicamycin-induced liver injury C57BL/6 mouse model at 75 to 300 mg/kg, ig administered for 3 days and on day 3 administered with tunicamycin after 2 hrs and measured after 24 hrs in presence of insulin by western blot analysis. As to conditions: dose 75-300 mg/kg, time 4.0 day.
Experiment [7] deals with Mus musculus. The experiment is described as follows: Protection against tunicamycin-induced ER stress in C57BL/6 mouse assessed as downregulation of CHOP gene expression in liver at 150 mg/kg, ig administered for 3 days and on day 3 administered with tunicamycin after 2 hrs and measured after 24 hrs by RT-qPCR analysis. As to conditions: time 4.0 day.
Experiment [8] has as its system Mus musculus. The experiment is described as follows: Protection against tunicamycin-induced ER stress in C57BL/6 mouse assessed as downregulation of GRP78 gene expression in liver at 150 mg/kg, ig administered for 3 days and on day 3 administered with tunicamycin after 2 hrs and measured after 24 hrs by RT-qPCR analysis. The note with it: time 4.0 day.
Experiment [9] concerns Mus musculus. The experiment is described as follows: Protection against tunicamycin-induced ER stress in C57BL/6 mouse assessed as downregulation of CHOP protein expression in liver at 150 mg/kg, ig administered for 3 days and on day 3 administered with tunicamycin after 2 hrs and measured after 24 hrs by western blot analysis. The note with it: time 4.0 day.
Experiment [10] relates to Mus musculus. In words: Protection against tunicamycin-induced ER stress in C57BL/6 mouse assessed as downregulation of GRP78 protein expression in liver at 150 mg/kg, ig administered for 3 days and on day 3 administered with tunicamycin after 2 hrs and measured after 24 hrs by western blot analysis. The note with it: time 4.0 day.
Experiment [11] has as its system Mus musculus. In words: Protection against tunicamycin-induced UPR response in C57BL/6 mouse assessed as downregulation of ATF6 gene expression in liver at 150 mg/kg, ig administered for 3 days and on day 3 administered with tunicamycin after 2 hrs and measured after 24 hrs by RT-qPCR analysis. As to conditions: time 4.0 day.
In experiment [12] the test system is Mus musculus. In words: Protection against tunicamycin-induced UPR response in C57BL/6 mouse assessed as downregulation of PERK gene expression in liver at 150 mg/kg, ig administered for 3 days and on day 3 administered with tunicamycin after 2 hrs and measured after 24 hrs by RT-qPCR analysis. The note with it: time 4.0 day.
The subject of experiment [13] is Mus musculus. The experiment is described as follows: Protection against tunicamycin-induced UPR response in C57BL/6 mouse assessed as downregulation of PERK protein expression in liver at 150 mg/kg, ig administered for 3 days and on day 3 administered with tunicamycin after 2 hrs and measured after 24 hrs by western blot analysis. The note with it: time 4.0 day.

Experiment [14] deals with Mus musculus. In words: Protection against tunicamycin-induced UPR response in C57BL/6 mouse assessed as downregulation of IRE1alpha protein expression in liver at 150 mg/kg, ig administered for 3 days and on day 3 administered with tunicamycin after 2 hrs and measured after 24 hrs by western blot analysis. As to conditions: time 4.0 day.
The subject of experiment [15] is Mus musculus. In words: Protection against tunicamycin-induced UPR response in C57BL/6 mouse assessed as downregulation of phosphorylated eIF2alpha protein expression in liver at 150 mg/kg, ig administered for 3 days and on day 3 administered with tunicamycin after 2 hrs and measured after 24 hrs by western blot analysis. As to conditions: time 4.0 day.
For experiment [16], the system named is Mus musculus. The experiment is described as follows: Protection against tunicamycin-induced gut microbiota dysbiosis in C57BL/6 mouse assessed as increase in proteobacteria abundance in colon at 75 to 300 mg/kg, ig administered for 3 days and on day 3 administered with tunicamycin after 2 hrs and measured after 24 hrs. The note with it: dose 75-300 mg/kg, time 4.0 day.

The subject of experiment [17] is Mus musculus. In words: Protection against tunicamycin-induced gut microbiota dysbiosis in C57BL/6 mouse assessed as increase in Epsilonbacteraeota-abundance in colon at 75 to 300 mg/kg, ig administered for 3 days and on day 3 administered with tunicamycin after 2 hrs and measured after 24 hrs. As to conditions: dose 75-300 mg/kg, time 4.0 day.
The subject of experiment [18] is Mus musculus. The experiment is described as follows: Protection against tunicamycin-induced gut microbiota dysbiosis in C57BL/6 mouse assessed as decrease in prevotellaceae-abundance in colon at 75 to 300 mg/kg, ig administered for 3 days and on day 3 administered with tunicamycin after 2 hrs and measured after 24 hrs. As to conditions: dose 75-300 mg/kg, time 4.0 day.

In experiment [19] the test system is Mus musculus. In words: Protection against tunicamycin-induced gut microbiota dysbiosis in C57BL/6 mouse assessed as increase in Erysipelotrichaceae- abundance in colon at 75 to 300 mg/kg, ig administered for 3 days and on day 3 administered with tunicamycin after 2 hrs and measured after 24 hrs. As to conditions: dose 75-300 mg/kg, time 4.0 day.
The test system of experiment [20] is Mus musculus. The experiment is described as follows: Protection against tunicamycin-induced gut microbiota dysbiosis in C57BL/6 mouse assessed as increase in Pediococcus-pentosaceus abundance in colon at 150 mg/kg, ig administered for 3 days and on day 3 administered with tunicamycin after 2 hrs and measured after 24 hrs by LEfse analysis. The note with it: time 4.0 day.

Experiment [21] has as its system Mus musculus. The experiment is described as follows: Protection against tunicamycin-induced gut microbiota dysbiosis in C57BL/6 mouse assessed as decrease in ratio of Prevotellaceae-to-Erysipelotrichaceae in colon at 75 to 300 mg/kg, ig administered for 3 days and on day 3 administered with tunicamycin after 2 hrs and measured after 24 hrs. The note with it: dose 75-300 mg/kg, time 4.0 day.

The source made the active and inactive calls. The rule behind the calls is not given here.

Consider `COc1ccc2cc3[n+](cc2c1OC)CCc1cc2c(cc1-3)OCO2`, for which the result in experiment [1], in [2], in experiment [3], in [4], in experiment [5] and in experiment [7] was Active. In addition, the outcome in [8], in [9], in experiment [10], in experiment [11], in experiment [12] and in experiment [13] was Active. Moreover, the result in experiment [14], in experiment [15], in experiment [16], in experiment [17], in experiment [18] and in [19] was Active. For the same compound, the outcome in [20] and in experiment [21] was Active. Further, in [6], the outcome was inactive.
